Measured values taken from patent publication US10309967B2, “Methods of diagnosing bipolar disorders and screening for therapeutic compounds” (National University Corporation Chiba University, priority 2015, dated 2019).
“Also recorded” adds a separate entry of the source.

Tests used:
Aco2 = test: Quantitative PCR of Aco2 mRNA in rat prefrontal cortex and hippocampus after Li or VPA; format: in vivo; details: normalized to Gapdh; for Aco2 gene expression: relative to control, mean ± SD
Description: (§1) Real-time quantitative RT-PCR analysis was conducted using an ABI7900HT Fast Real-Time PCR System (Applied Biosystems, Foster City, Calif.) in both human and rat samples. TaqMan probes and primers for the seven genes (ACO1, ACO2, IDH1, IDH2, IDH3A, IDH3B, IDH3G) and GAPDH (an internal control) (Table 11) were TAQMAN® Gene Expression Assays products (Applied Biosystems).
(§2) The CSF concentrations of 116 major metabolites from several pathways were measured. […] Male Sprague-Dawley rats (Japan SLC Inc., Shizuoka, Japan) aged 6 weeks old were used in this study. All rats were housed in groups of three per cage in a room maintained at 23° C.±2° C. and 60±10% humidity with a 12/12 hour light/dark cycle (lights on at 7:00 a.m.). The rats were given free access to food and water. Animal care and use were conducted in accordance with the Institutional Guidelines for Animal Care and Use of Otsuka Pharmaceutical Co., Ltd. (Tokushima, Japan). […] The drinking water was replaced twice a week. […] All animals were decapitated on day 30 after CSF sampling, and brain regions (prefrontal cortex, and hippocampus) were dissected rapidly on ice. Metabolomic analyses of rat CSF samples were performed as described herein.
(§3) Prefrontal cortex, and hippocampus were dissected rapidly on ice and stored in RNA later (Applied Biosystems) at 4° C. until used for RNA isolation, cDNA synthesis and polymerase chain reaction (PCR) amplification. The total RNA was extracted using the RNeasy Lipid Tissue Mini Kit (QIAGEN) following the instructions of manufacturer. RNA yield and integrity was assessed using Nanodrop (NanoDrop Technologies). Reverse transcription of total RNA was done using the […] VILO cDNA Synthesis Kit (Invitrogen). In the quantitative PCR, the cDNA was amplified using commercial TaqMan assays (Applied Biosystems) for rat Idh3A (Rn00586270_m1), Idh3B (Rn00504589_g1), Aco1 (Rn00569045_m1), Aco2 (Rn00577876_m1) and Gapdh (Rn01775763_g1) with an ABI 7500 Fast Real-Time PCR system (Applied Biosystems). (Table 17) Reactions were performed in triplicates. All reactions were normalized to Gapdh and presented as relative expression changes compared to control.

Idh3b = test: Quantitative PCR of Idh3b mRNA in rat prefrontal cortex and hippocampus after Li or VPA; format: in vivo; details: normalized to Gapdh; for Idh3b gene expression: relative to control, mean ± SD
Description: as §1, §2, §3

serum samples from rats = test: Metabolomics of serum samples from rats chronically treated with Li or VPA; format: in vivo, rat; details: chronic (4-weeks) treatment
Description: Data from human samples are presented as mean±standard deviation (SD). Statistical analysis was performed using SAS software version 9.3 (SAS Institute, Cary, N.C.). Analyses of metabolites between control and BD groups were performed using unpaired t-tests and Wilcoxon rank sum tests. A logistic regression model with a stepwise selection method was used for the multivariate analysis and multiple regression analysis (consistent with description in Allen et al., Technometrics. 1974; 16(1):125-127; and Miller et al., Chapman and Hall. 1974, which are incorporated in their entireties by reference herein). […] The Mann-Whitney U test (two-tailed) was used to evaluate changes in expression levels of the ACO and IDH genes between control and BD groups. Rat data are presented as mean±SD. To determine the effects of drug treatment, a one-way ANOVA, followed by the post hoc Dunnett's test was used. P values of less than 0.05 for two-tailed tests were considered statistically significant.
as §2
The serum concentrations of 116 major metabolites from several pathways were measured.

Idh3a = test: Quantitative PCR of Idh3a mRNA in rat prefrontal cortex and hippocampus after Li or VPA; format: in vivo; details: normalized to Gapdh
Description: as §1, §2, §3

[1] = rat prefrontal cortex and hippocampus, chronic (4-weeks) treatment, vs control, sodium salt

For `CCCC(CCC)C(=O)[O-].[Na+]` [VPA, valproic acid sodium salt], the Aco2 gene expression (Aco2; rat hippocampus) was 1.0358 ± 0.0499, the “mRNA levels of Aco2” value (Aco2; [1]) was “did not alter; also recorded: not altered” and the Aco2 gene expression (Aco2; rat prefrontal cortex) was 0.9505 ± 0.1596. The Idh3b gene expression (Idh3b; rat hippocampus) was 1.1512 ± 0.1377, the “mRNA levels of Idh3b” value (Idh3b; [1]) was “did not alter; also recorded: not altered” and the Idh3b gene expression (Idh3b; rat prefrontal cortex) was 1.2265 ± 0.2128. For the same molecule, the “2,3-Diphosphoglyceric acid Mean” value (serum samples from rats; rat serum) was 2.1, the “2-Hydroxyglutaric acid Mean” value (serum samples from rats; rat serum) was 1.5 and the “2-Oxoglutaric acid Mean” value (serum samples from rats; rat serum) was 29. The “2-Oxoisovaleric acid Mean” value (serum samples from rats; rat serum) was 15, the “2-Phosphoglyceric acid Mean” value (serum samples from rats; rat serum) was 0.6 and the “3-Phosphoglyceric acid Mean” value (serum samples from rats; rat serum) was 5.0. The “ADP-ribose Mean” value (serum samples from rats; rat serum) was 0.13, the “AMP Mean” value (serum samples from rats; rat serum) was 0.4 and the “ATP Mean” value (serum samples from rats; rat serum) was 4.2. For the same molecule, the “Ala Mean” value (serum samples from rats; rat serum) was 757, the “Arg Mean” value (serum samples from rats; rat serum) was 206 and the “Argininosuccinic acid Mean” value (serum samples from rats; rat serum) was 0.4. For the same molecule, the “Asn Mean” value (serum samples from rats; rat serum) was 77, the “Asp Mean” value (serum samples from rats; rat serum) was 12 and the “Betaine Mean” value (serum samples from rats; rat serum) was 287. The “Carnitine Mean” value (serum samples from rats; rat serum) was 78, the “Carnosine Mean” value (serum samples from rats; rat serum) was 0.2 and the “Choline Mean” value (serum samples from rats; rat serum) was 13. For the same molecule, the “Citric acid Mean” value (serum samples from rats; rat serum) was 151, the “Citrulline Mean” value (serum samples from rats; rat serum) was 92 and the “Creatine Mean” value (serum samples from rats; rat serum) was 211. For the same molecule, the “Creatinine Mean” value (serum samples from rats; rat serum) was 25, the “Cystathionine Mean” value (serum samples from rats; rat serum) was 1.1 and the “Fructose 1,6-diphosphate Mean” value (serum samples from rats; rat serum) was 0.3. The “Fructose 6-phosphate Mean” value (serum samples from rats; rat serum) was 0.09, the “Fumaric acid Mean” value (serum samples from rats; rat serum) was 2.6 and the “GDP Mean” value (serum samples from rats; rat serum) was 0.4. The “GMP Mean” value (serum samples from rats; rat serum) was 0.07, the “GTP Mean” value (serum samples from rats; rat serum) was 1.9 and the “Gln Mean” value (serum samples from rats; rat serum) was 1,001. The “Glu Mean” value (serum samples from rats; rat serum) was 173, the “Glucose 6-phosphate Mean” value (serum samples from rats; rat serum) was 0.6 and the “Glutathione (GSSG) Mean” value (serum samples from rats; rat serum) was 0.4. The “Gly Mean” value (serum samples from rats; rat serum) was 488, the “Glycerol 3-phosphate Mean” value (serum samples from rats; rat serum) was 3.5 and the “Glycolic acid Mean” value (serum samples from rats; rat serum) was 11. For the same molecule, the “His Mean” value (serum samples from rats; rat serum) was 90, the “Hydroxyproline Mean” value (serum samples from rats; rat serum) was 65 and the “IMP Mean” value (serum samples from rats; rat serum) was 0.13. For the same molecule, the “Ile Mean” value (serum samples from rats; rat serum) was 119, the “Isocitric acid Mean” value (serum samples from rats; rat serum) was 8.2 and the “Lactic acid Mean” value (serum samples from rats; rat serum) was 2,751. The “Leu Mean” value (serum samples from rats; rat serum) was 207, the “Lys Mean” value (serum samples from rats; rat serum) was 696 and the “Malic acid Mean” value (serum samples from rats; rat serum) was 12. For the same molecule, the “Met Mean” value (serum samples from rats; rat serum) was 53, the “Mevalonic acid Mean” value (serum samples from rats; rat serum) was 1.5E−04 and the “N,N-Dimethylglycine Mean” value (serum samples from rats; rat serum) was 11. The “N-Carbamoylaspartic acid Mean” value (serum samples from rats; rat serum) was 0.02, the “NAD^+ Mean” value (serum samples from rats; rat serum) was 1.1 and the “Ornithine Mean” value (serum samples from rats; rat serum) was 76. The “Phe Mean” value (serum samples from rats; rat serum) was 65, the “Phosphocreatine Mean” value (serum samples from rats; rat serum) was 0.9 and the “Pro Mean” value (serum samples from rats; rat serum) was 220. For the same molecule, the “Putrescine Mean” value (serum samples from rats; rat serum) was 0.3, the “Pyruvic acid Mean” value (serum samples from rats; rat serum) was 107 and the “Ribose 1-phosphate Mean” value (serum samples from rats; rat serum) was 0.4. The “Ribose 5-phosphate Mean” value (serum samples from rats; rat serum) was 0.04, the “Ribulose 5-phosphate Mean” value (serum samples from rats; rat serum) was 0.2 and the “Sarcosine Mean” value (serum samples from rats; rat serum) was 5.5. For the same molecule, the “Ser Mean” value (serum samples from rats; rat serum) was 319, the “Succinic acid Mean” value (serum samples from rats; rat serum) was 10 and the “Thr Mean” value (serum samples from rats; rat serum) was 217. The “Trp Mean” value (serum samples from rats; rat serum) was 110, the “Tyr Mean” value (serum samples from rats; rat serum) was 89 and the “UDP-glucose Mean” value (serum samples from rats; rat serum) was 0.6. For the same molecule, the “Urea Mean” value (serum samples from rats; rat serum) was 5,050, the “Uric acid Mean” value (serum samples from rats; rat serum) was 25 and the “Val Mean” value (serum samples from rats; rat serum) was 290. For the same molecule, the “cAMP Mean” value (serum samples from rats; rat serum) was 0.05, the “cGMP Mean” value (serum samples from rats; rat serum) was 0.02 and the “cis-Aconitic acid Mean” value (serum samples from rats; rat serum) was 3.1. The “β-Ala Mean” value (serum samples from rats; rat serum) was 1.9, the “serum levels of N-acetylglutamic acid” value (serum samples from rats; rats, vs control) was “not altered” and the “serum levels of arginine” value (serum samples from rats; rats, vs control) was “not altered”. For the same molecule, the “serum levels of pyruvic acid” value (serum samples from rats; rats, vs control) was “not altered”, the “serum levels of serine” value (serum samples from rats; rats, vs control) was “not altered” and the “serum levels of β-alanine” value (serum samples from rats; rats, vs control) was “not altered”. The “mRNA levels of Idh3a” value (Idh3a; [1]) was “did not alter; also recorded: not altered” and the Idh3a gene expression (Idh3a; rat prefrontal cortex, relative to control, mean ± SD) was 1.2546 ± 0.3578.
